The source of these data is PubChem BioAssay (NCI).

Among the test systems are 786-0 renal; CAKI-1 renal; HCC-2998 colon; HCT-116 colon; HOP-92 NSCLC; SF-295 CNS; SN12C renal; TK-10 renal; SK-OV-3 ovarian.
Common to all, as to test: NCI-60 cell line screen, 48 h

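Five concentrations, 48 hours, 96-well plates. The concentration for 50% growth inhibition is given as GI50. TGI is the concentration that stops growth completely.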

Consider `CCCCCCNCc1cc(C(C)(C)C)cc(CNCCCCCC)c1O`, for which the GI50 is 1.77 µM with 786-0 renal; 1.69 µM in the test on CAKI-1 renal; 1.62 µM in the test on HCC-2998 colon; 1.7 µM in the test on HCT-116 colon; 0.549 µM with HOP-92 NSCLC; 1.64 µM in the test with SF-295 CNS. Further, the GI50 is 1.7 µM in the test on SN12C renal and 1.86 µM in the test with TK-10 renal. In addition, the TGI with 786-0 renal came to 3.26 µM; with CAKI-1 renal, 3.08 µM; in the test on HCC-2998 colon, 2.99 µM; with HCT-116 colon, 3.07 µM; in the test with HOP-92 NSCLC, 2.04 µM; in the test on SF-295 CNS, 3.16 µM. In addition, the TGI stood at 3.15 µM with SN12C renal and 3.3 µM in the test on TK-10 renal.
Regarding `CC([O-])=C1C(=O)c2ccccc2C1=O.CC([O-])=C1C(=O)c2ccccc2C1=O.CC[O-].CC[O-].[Ti+4]`, the GI50 is greater than 100 µM with 786-0 renal; 59.5 µM in the test on CAKI-1 renal; greater than 100 µM with HCC-2998 colon; greater than 100 µM in the test with HOP-92 NSCLC; greater than 100 µM in the test on SF-295 CNS; greater than 100 µM in the test on SK-OV-3 ovarian. For the same molecule, in the test on SN12C renal, the GI50 was greater than 100 µM. Moreover, the TGI in the test on 786-0 renal, with CAKI-1 renal, with HCC-2998 colon, in the test on HOP-92 NSCLC, in the test with SF-295 CNS and in the test with SK-OV-3 ovarian was greater than 100 µM throughout. The TGI in the test on SN12C renal was greater than 100 µM.
Take `O=C1OC(=O)C2C3C=CC(C12)C1C2C=CC2C31` (stereo not given): the TGI in the test with 786-0 renal, with CAKI-1 renal, with HCC-2998 colon, in the test with HCT-116 colon, in the test with HOP-92 NSCLC and in the test with SF-295 CNS was greater than 100 µM throughout. Besides, the TGI with SK-OV-3 ovarian, in the test with SN12C renal and with TK-10 renal was greater than 100 µM in each case.
Regarding `O=c1c2cc3c(cc2c2cccc4c2n1CCC4)OCO3`, the TGI is greater than 100 µM with 786-0 renal; greater than 100 µM in the test on CAKI-1 renal; greater than 100 µM in the test with HCC-2998 colon; 71.1 µM with HCT-116 colon; greater than 100 µM with HOP-92 NSCLC; greater than 100 µM in the test on SF-295 CNS. For the same molecule, the TGI with SK-OV-3 ovarian, in the test with SN12C renal and in the test with TK-10 renal was greater than 100 µM in each case.
As for `COCCOCCOCCOc1cccc2c1C(=O)c1cccc(OCCOCCOCCOC)c1C2=O`, the TGI in the test on 786-0 renal, in the test with CAKI-1 renal, in the test on HCC-2998 colon, in the test on HCT-116 colon, in the test with HOP-92 NSCLC and in the test on SF-295 CNS was greater than 100 µM each time. Besides, the TGI in the test with SK-OV-3 ovarian, in the test with SN12C renal and in the test with TK-10 renal was greater than 100 µM each time.
With `O=C(NCCCl)SCCO`, the TGI in the test with 786-0 renal, in the test with HCC-2998 colon, in the test with HCT-116 colon, in the test with SF-295 CNS, with SK-OV-3 ovarian and with SN12C renal was greater than 100 µM each time. The molecule also displayed a TGI in the test with TK-10 renal greater than 100 µM.
`NC(=O)NC1C(C(=O)O)N(Cc2ccccc2)C(=O)N1Cc1ccccc1` (stereo not given): the TGI with 786-0 renal, with CAKI-1 renal, in the test with HCC-2998 colon, with HCT-116 colon, with HOP-92 NSCLC and in the test on SF-295 CNS was greater than 100 µM each time. Also, the TGI in the test on SK-OV-3 ovarian and in the test on TK-10 renal was greater than 100 µM throughout.
As to `COc1cccc(N2C(=O)C3C4C=C5c6ccccc6N(c6ccccc6)C5(C3C2=O)[C@H]2C(=O)N(c3cccc(OC)c3)C(=O)[C@@H]42)c1` (stereo not given in full), the TGI with 786-0 renal, with CAKI-1 renal, with HCT-116 colon, in the test with HOP-92 NSCLC, in the test with SF-295 CNS and with SK-OV-3 ovarian was greater than 100 µM in each case. Also, the TGI with SN12C renal and with TK-10 renal was greater than 100 µM in each case.
`COc1cc2ccnc3c(=C(SC)SC)c(=O)c(c1OC)c23`: the TGI in the test on 786-0 renal was 23.1 µM; in the test with CAKI-1 renal it was 23.4 µM; in the test on HCC-2998 colon it was 32.6 µM; in the test on HOP-92 NSCLC it was 21.2 µM; with SF-295 CNS it was greater than 100 µM; with SK-OV-3 ovarian, greater than 100 µM. Moreover, the results for the TGI in the test with SN12C renal and with TK-10 renal were 29.9 µM and 27.1 µM, respectively.
In the case of `COc1ccc(C(=O)C#Cc2c[nH]c(=O)[nH]c2=O)cc1`, the TGI in the test with 786-0 renal is 25 µM; with CAKI-1 renal, 24.8 µM; in the test with HCC-2998 colon, 36.4 µM; in the test with HCT-116 colon, 18.3 µM; in the test on HOP-92 NSCLC, 41.8 µM; in the test on SF-295 CNS it was 96.2 µM. Besides, the TGI was greater than 100 µM in the test on SK-OV-3 ovarian, 19.4 µM with SN12C renal and 23.3 µM in the test on TK-10 renal.
In the case of `N#Cc1cccc(C=NC23CC4CC(CC(C4)C2)C3)c1`, the TGI in the test on 786-0 renal, with CAKI-1 renal, with HCC-2998 colon, in the test with HCT-116 colon, in the test with HOP-92 NSCLC and with SF-295 CNS was greater than 100 µM throughout. The TGI in the test on SK-OV-3 ovarian, in the test on SN12C renal and with TK-10 renal was greater than 100 µM in each case.
In the case of `C=C(C(=C)P(=S)(C(C)C)C(C)C)P(=S)(C(C)C)C(C)C`, the TGI in the test with 786-0 renal, in the test on CAKI-1 renal, in the test on HCC-2998 colon, in the test on HCT-116 colon, with HOP-92 NSCLC and with SF-295 CNS was greater than 100 µM each time. Further, the TGI in the test with SK-OV-3 ovarian, in the test with SN12C renal and in the test with TK-10 renal was greater than 100 µM in each case.
`COc1cc(C(C)O)c[n+](CCC2CNc3ccccc32)c1` (stereo not given): the TGI in the test on 786-0 renal, in the test with CAKI-1 renal, with HCC-2998 colon, in the test on HCT-116 colon, in the test on SF-295 CNS and in the test with SN12C renal was greater than 100 µM each time.
In the case of `c1ccc(OCc2nnc3n2N=C(c2ccccc2)CS3)cc1`, the TGI with 786-0 renal, with CAKI-1 renal, in the test with HCC-2998 colon, with HCT-116 colon, with HOP-92 NSCLC and with SF-295 CNS was greater than 100 µM each time. The TGI in the test with SK-OV-3 ovarian, in the test on SN12C renal and in the test on TK-10 renal was greater than 100 µM each time.
